Source: patent US20080214606A1, “Methods for the Identification and Use of Compounds Suitable for the Treatment of Drug Resistant Cancer Cells” (The Government of the United States of America as …, priority 2004, published 2008)

Tests used:
ABCB11 = molecular target: T1, ABCB11 (Homo sapiens, UniProt O95342); assay: Correlation of ABCB11 expression with drug sensitivity across the NCI-60; format: cell-based; settings: Pearson correlation of ABCB11 expression with sensitivity of the 60 cell lines; 1429 compounds; inverse, p < 0.0001
T1 construct: profiled in 60 diverse cancer cell lines (the NCI-60) using real-time RT-PCR; endogenous in cells; host or cells: NCI-60 human cancer cell lines
Procedure: (§1) Expression levels are measured by real-time quantitative RT-PCR using the LightCycler RNA Amplification SYBR Green kit and a LightCycler machine (Roche Biochemicals, Indianapolis, Ind.). […] When possible, the amplicons are designed to encompass exon-intron boundaries to avoid amplification of genomic DNA. Since the Syber Green assay detects accumulation of double stranded DNA, primers are selected (from a battery consisting of about 200 primers) that amplified a single product of the correct size.
(§2) RT-PCR is carried out on 150 ng total RNA, in the presence of 250 nM specific primers. Following reverse transcription (20 min at 50° C.), the PCR reaction consists of 45 cycles of denaturation (15 sec at 95° C.), annealing (30 sec at 58° C.), and elongation (30 sec at 72° C.). No-template (water) reaction mixtures are prepared as negative controls.
(§3) During PCR amplification, fluorescence emission is measured and recorded in real time by the LightCycler. Crossing point values are calculated, using the LightCycler software package, by the Fit Points analysis method, with baseline fluorescence set at 1. The SyberGreen assay measures accumulation of double-stranded products, and the appearance of primer dimers limits quantitation at high cycle numbers. The specificity of amplified products is verified by melting-curve analysis and agarose gel electrophoresis (not shown). The raw results are expressed as number of cycles to reach the crossing point. If the desired product is not detected, the corresponding value is adjusted to crossing points indicating no expression. To assess the contribution of experimental artifacts, selected cell lines are assessed in replicate.
(§4) The two are combined to form a joint dataset that includes 1429 compounds.
(§5) In the Benjamini-Hochberg procedure the p-values are computed in the standard way by permutation, assuming that all distributions are exchangeable: the number of values in the permuted data with correlations over a threshold, divided by the number of compounds and by the number of permutations. In this analysis, the False Discovery Rate (q-value) at which each compound would be declared was calculated using the step-up procedure for positively correlated test statistics (again true because all correlations being compared are computed against the same ABC gene): in this procedure the first q-value for the largest correlation is the Bonferroni-corrected p-value for that gene; then further q-values are calculated as qj=max(pj*1429/j, qj-1). This procedure limits the expected proportion of false positives in the list 1, . . . , j to at most qj.

ABCA3 = molecular target: T2, ABCA3 (Homo sapiens, UniProt Q99758); assay: Correlation of ABCA3 expression with drug sensitivity across the NCI-60; format: cell-based; settings: Pearson correlation of ABCA3 expression with sensitivity of the 60 cell lines; 1429 compounds; inverse, p < 0.0001
T2 construct: profiled in 60 diverse cancer cell lines (the NCI-60) using real-time RT-PCR; endogenous in cells; host or cells: NCI-60 human cancer cell lines
Procedure: as §1, §2, §3, §4
(§6) To determine quantitatively how well the 47 genes cluster the cell lines by their tissues of origin, a statistical method is employed wherein the kappa statistic is used to indicate how well the observed clusters correspond to the nine tissue-of-origin classifications. […] To control the overall false type 1 error rate, both a step-down procedure (Westfall and Young, 1993, Resampling-Based Multiple Testing: Examples and Methods for p-value Adjustment (New York: Wiley)) and a step-up procedure (Reiner et al., 2003, Bioinformatics 19:368-375) were employed to adjust for multiple testing of all 47 genes simultaneously. In the Benjamini-Hochberg procedure the p-values are computed in the standard way by permutation, assuming that all distributions are exchangeable: the number of values in the permuted data with correlations over a threshold, divided by the number of compounds and by the number of permutations. In this analysis, the False Discovery Rate (q-value) at which each compound would be declared was calculated using the step-up procedure for positively correlated test statistics (again true because all correlations being compared are computed against the same ABC gene): in this procedure the first q-value for the largest correlation is the Bonferroni-corrected p-value for that gene; then further q-values are calculated as qj=max(pj*1429/j, qj-1). This procedure limits the expected proportion of false positives in the list 1, . . . , j to at most qj.

ABCB1 = ABCB1 (Homo sapiens, UniProt P08183); assay: Correlation of ABCB1 expression with drug sensitivity across the NCI-60
Method in brief: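 SYBR Green real-time RT-PCR on 150 ng total RNA with 250 nM primers: RT 20 min at 50 °C, then 45 cycles; expression taken as crossing-point cycle number. Correlated with drug sensitivity of 1429 compounds across the cell panel; permutation p-values with step-down and step-up (FDR q-value) multiple-testing correction.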

ABCB5 = molecular target: T3, ABCB5 (Homo sapiens, UniProt Q2M3G0); assay: Correlation of ABCB5 expression with drug sensitivity across the NCI-60; format: cell-based; settings: Pearson correlation of ABCB5 expression with sensitivity of the 60 cell lines; 1429 compounds; inverse, p < 0.0001
T3 construct: profiled in 60 diverse cancer cell lines (the NCI-60) using real-time RT-PCR; endogenous in cells; host or cells: NCI-60 human cancer cell lines
T3 sequence (Q2M3G0 1-1257): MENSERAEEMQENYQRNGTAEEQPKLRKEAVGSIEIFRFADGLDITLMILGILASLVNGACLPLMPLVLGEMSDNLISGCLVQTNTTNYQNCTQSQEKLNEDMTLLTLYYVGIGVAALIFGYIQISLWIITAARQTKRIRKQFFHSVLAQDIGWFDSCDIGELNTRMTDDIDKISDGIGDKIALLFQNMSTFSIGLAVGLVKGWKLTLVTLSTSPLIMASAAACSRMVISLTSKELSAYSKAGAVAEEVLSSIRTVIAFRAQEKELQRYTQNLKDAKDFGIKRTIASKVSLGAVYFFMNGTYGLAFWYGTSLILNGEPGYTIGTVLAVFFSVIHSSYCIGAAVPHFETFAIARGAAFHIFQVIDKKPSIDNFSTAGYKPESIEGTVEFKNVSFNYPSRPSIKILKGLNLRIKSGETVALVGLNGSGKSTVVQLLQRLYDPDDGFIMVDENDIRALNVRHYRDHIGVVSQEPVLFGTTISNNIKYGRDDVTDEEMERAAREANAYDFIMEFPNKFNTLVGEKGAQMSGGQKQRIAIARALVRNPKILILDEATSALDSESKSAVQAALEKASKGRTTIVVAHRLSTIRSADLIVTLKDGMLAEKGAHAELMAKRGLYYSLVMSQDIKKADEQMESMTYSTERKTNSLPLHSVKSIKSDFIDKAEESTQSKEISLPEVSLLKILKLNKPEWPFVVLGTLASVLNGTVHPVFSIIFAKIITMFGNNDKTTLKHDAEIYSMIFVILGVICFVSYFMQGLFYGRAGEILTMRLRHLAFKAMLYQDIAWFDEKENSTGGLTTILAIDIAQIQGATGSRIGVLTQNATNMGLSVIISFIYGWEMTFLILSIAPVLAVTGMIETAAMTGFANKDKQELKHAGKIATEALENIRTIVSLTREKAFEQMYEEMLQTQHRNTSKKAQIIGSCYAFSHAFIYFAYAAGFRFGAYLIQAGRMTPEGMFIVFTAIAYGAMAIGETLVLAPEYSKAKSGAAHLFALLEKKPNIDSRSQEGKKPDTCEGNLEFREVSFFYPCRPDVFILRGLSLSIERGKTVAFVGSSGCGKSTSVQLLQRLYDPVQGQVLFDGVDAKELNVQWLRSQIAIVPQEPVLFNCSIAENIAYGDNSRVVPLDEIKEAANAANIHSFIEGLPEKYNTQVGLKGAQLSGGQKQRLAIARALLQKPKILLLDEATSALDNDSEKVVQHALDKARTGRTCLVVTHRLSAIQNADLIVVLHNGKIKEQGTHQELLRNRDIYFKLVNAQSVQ
Procedure: as §1, §2, §3, §4, §5

ABCC7 = molecular target: T4, ABCC7 (Homo sapiens, UniProt P13569); assay: Correlation of ABCC7 expression with drug sensitivity across the NCI-60; format: cell-based; settings: Pearson correlation of ABCC7 expression with sensitivity of the 60 cell lines; 1429 compounds; inverse, p < 0.0001
T4 construct: profiled in 60 diverse cancer cell lines (the NCI-60) using real-time RT-PCR; endogenous in cells; host or cells: NCI-60 human cancer cell lines
Procedure: as §1, §2, §3, §4, §6

ABCC3 = molecular target: T5, ABCC3 (Homo sapiens, UniProt O15438); assay: Correlation of ABCC3 expression with drug sensitivity across the NCI-60; format: cell-based; settings: Pearson correlation of ABCC3 expression with sensitivity of the 60 cell lines; 1429 compounds; inverse, p < 0.0001
T5 construct: profiled in 60 diverse cancer cell lines (the NCI-60) using real-time RT-PCR; endogenous in cells; host or cells: NCI-60 human cancer cell lines
Procedure: as §1, §2, §3, §4, §6

ABCC1 = molecular target: T6, ABCC1 (Homo sapiens, UniProt P33527); assay: Correlation of ABCC1 expression with drug sensitivity across the NCI-60; format: cell-based; settings: Pearson correlation of ABCC1 expression with sensitivity of the 60 cell lines; 1429 compounds; inverse, p < 0.0001
T6 construct: profiled in 60 diverse cancer cell lines (the NCI-60) using real-time RT-PCR; endogenous in cells; host or cells: NCI-60 human cancer cell lines
Procedure: as §1, §2, §3, §4, §5

[1] = system: KB-V1 cells (over-express MDR1-P-gp) vs parental KB-3-1 cells; assay: MTT assay using the KB-3-1/KB-V1 cell pair; format: cell-based, human
Procedure: Cell survival is measured by the MTT (3-(4,5-Dimethylthiazol-2-yl)-2,5-diphenyltetrazolium) Assay. Cells are seeded in 100 μl medium at a density of 5000 cells/well in 96 well plates, and serially diluted drug (with or without 2 μM PSC 833) is added the following day in 100 μl medium to give the indicated final concentration. Cells are then incubated for 72 hrs at 37° C. in 5% CO2, and the MTT assay is performed according to the manufacturer's instructions (Molecular Probes, Eugene, Oreg.).
To test whether our approach using the NCI-60 does, in fact, identify new substrates, an MTT assay is used to test all top-scoring compounds that were available from DTP for follow-up experiments. KB-3-1, a human carcinoma cell line, and KB-V1, a multidrug resistant derivative of KB-3-1 that over-expresses MDR1-P-gp (Shen et al., 1986, J. Biol. Chem. 261:7762-7770), are used for the tests. […] This resistance of KB-V-1 cells is invariably reversible by PSC 833. The intrinsic fluorescence of one of the compounds, NSC 634791, allows for the measurement of the effect of MDR1 activity on its export from cells.

T6 sequence (P33527 whole entry): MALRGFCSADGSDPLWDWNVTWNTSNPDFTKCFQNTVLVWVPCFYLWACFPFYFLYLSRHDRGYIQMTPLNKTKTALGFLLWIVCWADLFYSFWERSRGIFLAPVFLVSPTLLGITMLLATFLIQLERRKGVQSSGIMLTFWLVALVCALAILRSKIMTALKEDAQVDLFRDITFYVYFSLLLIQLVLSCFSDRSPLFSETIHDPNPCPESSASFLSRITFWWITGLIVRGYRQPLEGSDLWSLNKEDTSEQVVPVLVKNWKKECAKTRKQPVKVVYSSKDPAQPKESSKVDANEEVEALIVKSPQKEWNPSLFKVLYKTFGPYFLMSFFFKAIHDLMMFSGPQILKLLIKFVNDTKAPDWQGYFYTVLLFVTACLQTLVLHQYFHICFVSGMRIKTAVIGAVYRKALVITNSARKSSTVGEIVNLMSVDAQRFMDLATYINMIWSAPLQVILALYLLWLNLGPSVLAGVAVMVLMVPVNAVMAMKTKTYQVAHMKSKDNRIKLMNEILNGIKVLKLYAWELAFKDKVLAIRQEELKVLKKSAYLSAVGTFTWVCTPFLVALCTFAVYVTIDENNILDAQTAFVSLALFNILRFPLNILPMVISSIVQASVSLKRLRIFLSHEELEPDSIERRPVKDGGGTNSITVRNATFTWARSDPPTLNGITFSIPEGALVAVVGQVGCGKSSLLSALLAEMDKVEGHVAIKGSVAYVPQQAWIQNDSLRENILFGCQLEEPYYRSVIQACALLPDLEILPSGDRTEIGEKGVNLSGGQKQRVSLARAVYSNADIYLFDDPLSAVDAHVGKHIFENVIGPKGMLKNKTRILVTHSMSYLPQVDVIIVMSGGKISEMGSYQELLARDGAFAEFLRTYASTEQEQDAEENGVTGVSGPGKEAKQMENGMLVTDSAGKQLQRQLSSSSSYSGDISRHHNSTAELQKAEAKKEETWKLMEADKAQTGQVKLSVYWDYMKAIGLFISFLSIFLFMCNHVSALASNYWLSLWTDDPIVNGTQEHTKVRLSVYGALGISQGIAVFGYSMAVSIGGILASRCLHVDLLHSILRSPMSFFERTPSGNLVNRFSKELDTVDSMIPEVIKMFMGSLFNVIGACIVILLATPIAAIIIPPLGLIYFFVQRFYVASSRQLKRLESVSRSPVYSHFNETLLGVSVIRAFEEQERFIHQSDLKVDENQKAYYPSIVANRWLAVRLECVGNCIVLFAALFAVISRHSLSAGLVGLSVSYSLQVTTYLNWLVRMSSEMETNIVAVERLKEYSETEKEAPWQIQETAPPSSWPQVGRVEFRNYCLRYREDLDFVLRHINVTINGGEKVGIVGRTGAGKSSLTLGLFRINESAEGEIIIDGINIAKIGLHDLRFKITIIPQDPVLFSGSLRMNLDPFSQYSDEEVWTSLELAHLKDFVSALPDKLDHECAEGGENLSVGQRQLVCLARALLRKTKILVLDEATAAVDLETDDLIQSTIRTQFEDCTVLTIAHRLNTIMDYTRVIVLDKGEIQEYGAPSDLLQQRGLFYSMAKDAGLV
T2 sequence (Q99758 whole entry): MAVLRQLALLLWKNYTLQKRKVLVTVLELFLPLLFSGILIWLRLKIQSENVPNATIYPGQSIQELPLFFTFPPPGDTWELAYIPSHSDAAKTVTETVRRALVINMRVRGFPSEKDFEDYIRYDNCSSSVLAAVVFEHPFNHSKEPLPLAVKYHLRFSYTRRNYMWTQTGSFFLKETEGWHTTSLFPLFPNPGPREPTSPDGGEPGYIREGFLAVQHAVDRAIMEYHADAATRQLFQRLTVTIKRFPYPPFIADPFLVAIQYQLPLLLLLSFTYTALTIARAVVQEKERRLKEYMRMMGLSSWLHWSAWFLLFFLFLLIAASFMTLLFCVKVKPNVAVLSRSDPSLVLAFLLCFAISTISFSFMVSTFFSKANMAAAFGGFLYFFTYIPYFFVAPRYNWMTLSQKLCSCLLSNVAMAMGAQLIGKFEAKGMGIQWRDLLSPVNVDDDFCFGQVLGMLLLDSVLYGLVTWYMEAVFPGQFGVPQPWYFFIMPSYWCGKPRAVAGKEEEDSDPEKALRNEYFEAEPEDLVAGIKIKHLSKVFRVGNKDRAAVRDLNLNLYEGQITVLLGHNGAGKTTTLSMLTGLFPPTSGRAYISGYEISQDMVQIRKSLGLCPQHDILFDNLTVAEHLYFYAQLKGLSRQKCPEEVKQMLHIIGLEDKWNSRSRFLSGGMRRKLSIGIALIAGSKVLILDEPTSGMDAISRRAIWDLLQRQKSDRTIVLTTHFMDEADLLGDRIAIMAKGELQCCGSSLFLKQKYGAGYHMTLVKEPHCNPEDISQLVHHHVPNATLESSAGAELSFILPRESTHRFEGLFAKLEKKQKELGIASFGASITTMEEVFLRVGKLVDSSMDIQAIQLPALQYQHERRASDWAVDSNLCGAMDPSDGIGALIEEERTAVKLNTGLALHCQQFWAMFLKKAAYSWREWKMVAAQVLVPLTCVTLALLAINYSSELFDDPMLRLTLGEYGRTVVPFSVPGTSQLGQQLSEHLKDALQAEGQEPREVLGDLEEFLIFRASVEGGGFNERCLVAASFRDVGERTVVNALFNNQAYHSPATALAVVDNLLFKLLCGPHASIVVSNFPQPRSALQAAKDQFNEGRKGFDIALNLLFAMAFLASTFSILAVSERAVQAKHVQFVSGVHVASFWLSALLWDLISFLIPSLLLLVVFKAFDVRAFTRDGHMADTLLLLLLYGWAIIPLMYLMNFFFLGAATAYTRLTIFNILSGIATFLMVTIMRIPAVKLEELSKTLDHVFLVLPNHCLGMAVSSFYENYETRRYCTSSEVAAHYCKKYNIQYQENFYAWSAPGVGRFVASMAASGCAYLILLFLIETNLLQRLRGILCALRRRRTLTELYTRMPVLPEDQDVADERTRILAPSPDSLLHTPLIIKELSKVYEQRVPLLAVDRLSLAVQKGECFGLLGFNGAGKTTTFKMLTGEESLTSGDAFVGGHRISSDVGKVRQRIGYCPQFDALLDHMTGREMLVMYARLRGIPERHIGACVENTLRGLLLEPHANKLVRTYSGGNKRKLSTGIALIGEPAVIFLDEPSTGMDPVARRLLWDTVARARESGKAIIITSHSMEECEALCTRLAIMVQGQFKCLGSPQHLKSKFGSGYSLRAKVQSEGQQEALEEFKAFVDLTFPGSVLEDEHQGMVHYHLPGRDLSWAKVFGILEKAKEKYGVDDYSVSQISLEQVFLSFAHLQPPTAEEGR
ABCB1, sequence (P08183 whole entry): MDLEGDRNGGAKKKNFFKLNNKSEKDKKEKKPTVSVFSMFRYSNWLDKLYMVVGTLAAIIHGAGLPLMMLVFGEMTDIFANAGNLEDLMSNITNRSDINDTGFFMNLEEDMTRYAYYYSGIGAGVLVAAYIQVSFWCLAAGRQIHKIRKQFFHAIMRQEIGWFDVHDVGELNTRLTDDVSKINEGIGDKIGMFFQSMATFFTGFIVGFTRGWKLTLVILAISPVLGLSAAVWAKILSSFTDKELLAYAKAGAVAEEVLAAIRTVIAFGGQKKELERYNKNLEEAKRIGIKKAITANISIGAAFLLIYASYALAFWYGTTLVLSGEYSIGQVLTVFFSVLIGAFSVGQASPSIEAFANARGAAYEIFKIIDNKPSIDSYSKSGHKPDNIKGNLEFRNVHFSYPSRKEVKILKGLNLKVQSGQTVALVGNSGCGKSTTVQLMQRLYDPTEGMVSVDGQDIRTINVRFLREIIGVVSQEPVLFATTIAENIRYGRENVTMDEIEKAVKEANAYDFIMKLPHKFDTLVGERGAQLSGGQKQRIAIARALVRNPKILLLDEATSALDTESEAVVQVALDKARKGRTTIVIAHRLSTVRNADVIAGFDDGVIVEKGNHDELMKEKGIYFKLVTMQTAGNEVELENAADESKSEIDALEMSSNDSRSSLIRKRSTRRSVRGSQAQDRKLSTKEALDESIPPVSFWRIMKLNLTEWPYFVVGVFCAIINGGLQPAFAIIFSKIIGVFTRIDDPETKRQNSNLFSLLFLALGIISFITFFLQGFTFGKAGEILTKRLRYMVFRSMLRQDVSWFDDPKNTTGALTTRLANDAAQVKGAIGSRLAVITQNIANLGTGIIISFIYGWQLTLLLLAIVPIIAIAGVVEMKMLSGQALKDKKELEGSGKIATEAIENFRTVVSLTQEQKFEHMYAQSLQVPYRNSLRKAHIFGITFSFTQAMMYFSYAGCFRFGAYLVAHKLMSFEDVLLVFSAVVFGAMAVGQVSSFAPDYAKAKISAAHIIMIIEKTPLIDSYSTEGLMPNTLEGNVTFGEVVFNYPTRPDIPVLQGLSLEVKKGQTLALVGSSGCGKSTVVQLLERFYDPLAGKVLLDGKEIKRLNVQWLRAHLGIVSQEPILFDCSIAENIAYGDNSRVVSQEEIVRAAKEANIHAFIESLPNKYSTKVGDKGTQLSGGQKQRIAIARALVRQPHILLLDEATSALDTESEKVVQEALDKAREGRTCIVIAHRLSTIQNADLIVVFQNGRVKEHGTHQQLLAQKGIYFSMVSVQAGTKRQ

## Cc1c2ccnc(C(N)=O)c2c(C)c2c1[nH]c1ccccc12.Cl [NSC 335142]
ABCB11
  Correlation: −0.4214

## CC(=O)O[C@H]1C(=O)[C@@]2(C)[C@H]([C@H](OC(=O)c3ccco3)[C@]3(O)C[C@H](OC(=O)[C@H](O)[C@@H](NC(=O)c4ccccc4)c4ccccc4)C(C)=C1C3(C)C)[C@]1(OC(C)=O)CO[C@@H]1C[C@@H]2O [NSC 673187]
ABCA3
  Correlation: −0.3896

## CC(=O)O[C@@]12CO[C@@H]1CC(O)[C@@]1(C)C(=O)[C@H](O)C3=C(C)C(O)C[C@@](O)(C(OC(=O)c4ccccc4)C12)C3(C)C (stereo partly shown) [NSC 656178]
ABCA3
  Correlation: −0.4318

## CN(C)CC1CCC/C(=C\c2ccc(OC(=O)/C=C/c3ccc(Cl)c(Cl)c3)cc2)C1=O.Cl (stereo not shown) [NSC 693443]
ABCB1
  Pearson's Correlation Coeff: 0.1842
ABCB5
  Correlation: −0.3300

## COC(=O)CCC(=O)NC1=C(Nc2ccc(OC)cc2)C(=O)c2ccccc2C1=O [NSC 670766]
ABCC7
  Correlation: −0.4378

## C=C1C(=O)O[C@H]2[C@@H](O)[C@H](C)CCC/C(C)=C/CC[C@@]3(C)O[C@@H]3C[C@@H]12 [NSC 694509]
ABCB1
  Pearson's Correlation Coeff: 0.2823
ABCB5
  Correlation: −0.2924

## CCN(CC)CC(O)CNc1ccc(NCC2CO2)c2c1C(=O)c1ccccc1C2=O (stereo not shown) [NSC 639366]
ABCC3
  Correlation: −0.5003

## CC[C@]1(O)C[C@@H]2CN(CCc3c([nH]c4ccccc34)[C@@](C(=O)OC)(c3cc4c(cc3OC)N(C)[C@H]3[C@@](O)(C(=O)OC)[C@H](OC(C)=O)[C@]5(CC)C=CCN6CC[C@]43[C@@H]65)C2)C1.O=S(=O)(O)O [NSC 49842]
ABCA3
  Correlation: −0.3678

## C=C(c1ccccc1)[C@@]1(O)CC[C@@H]1N(CC#N)Cc1ccccc1 [NSC 617644]
ABCC1
  Correlation: −0.5087

## COC(=O)CCC(=O)NC1=C(Nc2ccccc2)C(=O)c2ccccc2C1=O [NSC 670762]
ABCC1
  Correlation: −0.4326

## Cn1c(=O)nc2n(-c3ccc(Cl)cc3)c3cc(Cl)ccc3nc-2c1=O [NSC 627991]
ABCC3
  Correlation: −0.4741

## O=C(CC(=O)c1ccccc1NC1=Cc2ccccc2C(=O)C1=O)C(=O)NC1=C(Cl)C(=O)c2ccccc2C1=O [NSC 641245]
ABCC3
  Correlation: −0.5702

## CC(=O)NC1=CC(=O)c2cc(C)cc(O)c2C1=O [NSC 658450]
ABCC3
  Correlation: −0.5526

## Cc1c2ccnc(-c3ccccc3)c2cc2c1[nH]c1ccccc12 [NSC 86715]
ABCC7
  Correlation: −0.5696
ABCB1
  Correlation of antiproliferative activity with ABCB1 expression: 0.5323

## CCOC(=O)CNC(=O)NC12CC3CC(CC(C3)C1)C2 [NSC 208914]
ABCC1
  Correlation: −0.4950

## CC1C(c2ccc3c(c2)OCO3)c2cc3c(cc2OC1N1CCOCC1)OCO3 (stereo not shown) [NSC 666222]
ABCC1
  Correlation: −0.3675

## CN1N=C(N)c2cn([C@@H]3O[C@H](COP(=O)(O)O)[C@@H](O)[C@H]3O)c3ncnc1c23 [NSC 280594]
ABCB5
  Correlation: −0.3477

## O=C1c2cccc(NCCNCCO)c2C(=O)c2cccc(NCCNCCO)c21 [NSC 363997]
[1]; MTT assay with 2 μM PSC 833
  Effect of PSC 833 on the resistance of KB-V1 cells: reverses the resistance
[1]; MTT assay, 72 hrs
  Resistance of KB-V1 cells in comparison with the parental line: resistant

## Cc1oc2c(c1C(=O)c1ccccc1)C(=O)c1ccccc1C2=O [NSC 641594]
ABCC1
  Correlation: −0.4324
ABCC3
  Correlation: −0.4994

## CC(C)(C)NNc1c([N+](=O)[O-])cnn(-c2ccccc2)c1=O [NSC 641820]
ABCC3
  Correlation: −0.3991
